# Measured values: article PMC9942140 (Journal of medicinal chemistry, 2022)
# Biological target: T1, hepatocyte nuclear factor 4α (HNF4α) (Homo sapiens, UniProt P41235)
# T1 sequence (P41235 147-377): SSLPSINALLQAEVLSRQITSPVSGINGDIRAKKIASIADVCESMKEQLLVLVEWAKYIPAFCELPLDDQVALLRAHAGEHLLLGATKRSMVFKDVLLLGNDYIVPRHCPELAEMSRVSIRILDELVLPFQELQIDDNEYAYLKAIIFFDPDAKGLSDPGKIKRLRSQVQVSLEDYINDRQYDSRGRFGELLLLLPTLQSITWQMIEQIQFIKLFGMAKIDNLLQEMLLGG
# Experiment: intrinsic tyrosine/tryptophan fluorescence quenching titration of purified LBD
# Format: binding
compound,measurement,value
"COc1cc(C)c(C(C)C)cc1S(=O)(=O)N(CC(O)Cn1nnnc1-c1ccccn1)c1ccccc1C (racemic) [compound 33, N-(2-Hydroxy-3-(5-(pyridin-2-yl)-1H-tetrazol-1-yl)propyl)-5-isopropyl-2-methoxy-4-methyl-N-(o-tolyl)benzenesulfonamide]",Kd,312 nM
